From patent US7122563B2, “Derivatives of 4-demethylpenclomedine, use thereof and preparation thereof” (Southern Research Institute, priority 2005, dated 2006)

Tests used:
[1] = rats; cited from earlier work
MX-1 Mammary Tumor = assay: MX-1 mammary tumor implanted in the mammary fat pad of mice, i.p. treatment
[2] = system: U251 human glioblastoma xenograft; assay: Intracranially-implanted U251 human glioblastoma xenograft, survival; type: in vivo; settings: for increase in life span (ILS): intracranially-implanted U251, side-by-side experiment
Source text: (§1) Treatment of i.c. implants is initiated 1 day after tumor implantation and continued for 5 days. Mice are monitored daily for survival.

[3] = system: D54 human glioblastoma multiforme; assay: Intracranially-implanted D54 human glioblastoma multiforme, survival; type: in vivo
Source text: as §1

[4] = Behavioral test of neurotoxicity (tremors); type: in vivo; settings: DM-SMTC-PEN evaluated simultaneously with PEN
Source text: A major concern for the penclomedine (PEN) series of derivatives is their possible neurotoxicity. PEN was removed from clinical development as a potential drug for treating breast cancer because of its dose-limiting neurotoxicity.

[5] = after both intravenous and oral administration, related to peak plasma levels; cited from earlier work
[6] = IP 135 mg/kg/dose, Days 15–19, groups of 5 mice
[7] = IP 135 mg/kg/dose, Days 13-17, groups of 5 mice
[8] = IP 60 mg/kg/dose, Days 15–19, groups of 5 mice

COc1nc(C(Cl)(Cl)Cl)c(Cl)c(O)c1Cl [4-DM-PEN, 3,5-Dichloro-2-methoxy-4-hydroxy-6-(trichloromethyl)pyridine, reference compound]
cerebellar damage [1]: cerebellar damage only in the PEN-treated group
Growth Delay (T-C) (MX-1 Mammary Tumor; IP 135 mg/kg/dose, Days 15–19): 32.8
Tumor-free Survivors (MX-1 Mammary Tumor; IP 135 mg/kg/dose, Days 15–19): 0/5
Regressions Complete (MX-1 Mammary Tumor; [6]): 0
Regressions Partial (MX-1 Mammary Tumor; [6]): 2

CCN(CC)C(=S)Oc1c(Cl)c(OC)nc(C(Cl)(Cl)Cl)c1Cl [DM-DETC-PEN]
Growth Delay (T-C) (MX-1 Mammary Tumor; IP 135 mg/kg/dose, Days 15–19): >35.2
Tumor-free Survivors (MX-1 Mammary Tumor; IP 135 mg/kg/dose, Days 15–19): 1/5
Regressions Complete (MX-1 Mammary Tumor; [6]): 1
Regressions Partial (MX-1 Mammary Tumor; [6]): 1

COc1nc(C(Cl)(Cl)Cl)c(Cl)c(OC(=S)N(C)C)c1Cl [DM-DMTC-PEN]
Growth Delay (T-C) (MX-1 Mammary Tumor; IP 135 mg/kg/dose, Days 13-17): >37.0
Tumor-free Survivors (MX-1 Mammary Tumor; IP 135 mg/kg/dose, Days 13-17): 3/5
Regressions Complete (MX-1 Mammary Tumor; [7]): 4
Regressions Partial (MX-1 Mammary Tumor; [7]): 1
increase in life span (ILS) [2]: 44%

CCSC(=O)Oc1c(Cl)c(OC)nc(C(Cl)(Cl)Cl)c1Cl [DM-SETC-PEN]
Growth Delay (T-C) (MX-1 Mammary Tumor; IP 60 mg/kg/dose, Days 15–19): >35.2
Tumor-free Survivors (MX-1 Mammary Tumor; IP 60 mg/kg/dose, Days 15–19): 1/5
Regressions Complete (MX-1 Mammary Tumor; [8]): 2
Regressions Partial (MX-1 Mammary Tumor; [8]): 3

COc1nc(C(Cl)(Cl)Cl)c(Cl)c(OC(=O)SC)c1Cl [DM-SMTC-PEN]
Growth Delay (T-C) (MX-1 Mammary Tumor; IP 60 mg/kg/dose, Days 15–19): >41.6
Tumor-free Survivors (MX-1 Mammary Tumor; IP 60 mg/kg/dose, Days 15–19): 2/5
Regressions Complete (MX-1 Mammary Tumor; [8]): 2
Regressions Partial (MX-1 Mammary Tumor; [8]): 2
increase in life span [3]: 18%
activity against intracranially-implanted U251 ([2]; compared with the acyl derivatives): comparably active to the acyl derivatives
increase in life span (ILS) [2]: 56%
neurotoxicity (production of tremors) [4]: non-neurotoxic

COc1nc(C(Cl)(Cl)Cl)c(Cl)c(OC(=O)Sc2ccccc2)c1Cl [DM-SPTC-PEN]
Growth Delay (T-C) (MX-1 Mammary Tumor; IP 135 mg/kg/dose, Days 15–19): >35.2
Tumor-free Survivors (MX-1 Mammary Tumor; IP 135 mg/kg/dose, Days 15–19): 1/5
Regressions Complete (MX-1 Mammary Tumor; [6]): 2
Regressions Partial (MX-1 Mammary Tumor; [6]): 2

COc1nc(C(Cl)(Cl)Cl)c(Cl)c(OC)c1Cl [PEN, 3,5-dichloro-2,4-dimethoxy-6-(trichloromethyl) pyridine]
cerebellar damage [1]: cerebellar damage only in the PEN-treated group
neurotoxicity in clinical trials [5]: dose-limiting neurotoxicity was observed
neurotoxicity (production of tremors) [4]: production of tremors
